The supplement of paper PMC10307832

Legend:
Test in all cases: relative viability (nuclei count vs DMSO), 5 days (fraction); higher = more cells survive
201T = test system: 201T
Method in brief: (§1)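 After 5 days of treatment, lung cancer cells in 1536-well plates were fixed and stained in a single step (final 0.05% Triton X-100, 1% formaldehyde, 1 ug/ml Hoechst) and their nuclei counted on 4× images. Treatment had been applied by pin tool the day after seeding as one drug alone or as a fixed anchor-drug dose with five library-drug doses (not always all listed) in √10 steps. Relative viability is the nuclei count of treated wells divided by that of vehicle wells, and values are medians of duplicate plates.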

COR-L23 = test system: COR-L23
Method in brief: as §1

EKVX = test system: EKVX
Method in brief: as §1

EPLC-272H = test system: EPLC-272H
Method in brief: as §1

HCC-44 = test system: HCC-44
Method in brief: as §1

LOU-NH91 = test system: LOU-NH91
Method in brief: as §1

NCI-H1563 = test system: NCI-H1563
Method in brief: as §1

NCI-H1650 = test system: NCI-H1650
Method in brief: as §1

NCI-H1734 = test system: NCI-H1734
Method in brief: as §1

NCI-H1793 = test system: NCI-H1793
Method in brief: as §1

NCI-H1993 = test system: NCI-H1993
Method in brief: as §1

NCI-H2023 = test system: NCI-H2023
Method in brief: as §1

NCI-H2085 = test system: NCI-H2085
Method in brief: as §1

NCI-H2170 = test system: NCI-H2170
Method in brief: as §1

NCI-H2347 = test system: NCI-H2347
Method in brief: as §1

NCI-H2405 = test system: NCI-H2405
Method in brief: as §1

NCI-H3122 = test system: NCI-H3122
Method in brief: as §1

NCI-H441 = test system: NCI-H441
Method in brief: as §1

NCI-H520 = test system: NCI-H520
Method in brief: as §1

NCI-H647 = test system: NCI-H647
Method in brief: as §1

PC-14 = test system: PC-14
Method in brief: as §1

RERF-LC-KJ = test system: RERF-LC-KJ
Method in brief: as §1

SW 900 = test system: SW 900
Method in brief: as §1

`C[C@@H]1CN(CC(=O)Nc2ccc3c(c2)Cc2cccc(-c4cc(=O)cc(N5CCOCC5)o4)c2S3)C[C@H](C)O1` + Nc1nc2[nH]cc(CCc3ccc(C(=O)N[C@@H](CCC(=O)O)C(=O)O)cc3)c2c(=O)[nH]1 [Pemetrexed] (partner 0.2 µM) was tested, and the relative viability (201T; first compound 0.04 µM) was 0.329, the relative viability (201T; first compound 0.1265 µM) was 0.319 and the relative viability (201T; first compound 0.4 µM) was 0.295. It also gave a relative viability (201T; first compound 4 µM) of 0.314, a relative viability (COR-L23; first compound 0.04 µM) of 0.189 and a relative viability (COR-L23; first compound 0.1265 µM) of 0.204. For the same molecule, the relative viability (COR-L23; first compound 0.4 µM) was 0.203, the relative viability (COR-L23; first compound 4 µM) was 0.206 and the relative viability (EKVX; first compound 0.04 µM) was 0.376. The relative viability (EKVX; first compound 0.1265 µM) was 0.42, the relative viability (EKVX; first compound 0.4 µM) was 0.31 and the relative viability (EKVX; first compound 4 µM) was 0.369. For the same molecule, the relative viability (EPLC-272H; first compound 0.04 µM) was 0.311, the relative viability (EPLC-272H; first compound 0.1265 µM) was 0.371 and the relative viability (EPLC-272H; first compound 0.4 µM) was 0.313. It also gave a relative viability (EPLC-272H; first compound 4 µM) of 0.269, a relative viability (HCC-44; first compound 0.04 µM) of 0.639 and a relative viability (HCC-44; first compound 0.1265 µM) of 0.644. The relative viability (HCC-44; first compound 0.4 µM) was 0.639, the relative viability (HCC-44; first compound 4 µM) was 0.63 and the relative viability (LOU-NH91; first compound 0.04 µM) was 0.339. It also gave a relative viability (LOU-NH91; first compound 0.1265 µM) of 0.367, a relative viability (LOU-NH91; first compound 0.4 µM) of 0.36 and a relative viability (LOU-NH91; first compound 4 µM) of 0.329. The relative viability (NCI-H1563; first compound 0.04 µM) was 0.661, the relative viability (NCI-H1563; first compound 0.1265 µM) was 0.774 and the relative viability (NCI-H1563; first compound 0.4 µM) was 0.715. For the same molecule, the relative viability (NCI-H1563; first compound 4 µM) was 0.712, the relative viability (NCI-H1650; first compound 0.04 µM) was 0.367 and the relative viability (NCI-H1650; first compound 0.1265 µM) was 0.353. The relative viability (NCI-H1650; first compound 0.4 µM) was 0.408, the relative viability (NCI-H1650; first compound 4 µM) was 0.329 and the relative viability (NCI-H1734; first compound 0.04 µM) was 0.424. For the same molecule, the relative viability (NCI-H1734; first compound 0.1265 µM) was 0.405, the relative viability (NCI-H1734; first compound 0.4 µM) was 0.386 and the relative viability (NCI-H1734; first compound 4 µM) was 0.398. It also gave a relative viability (NCI-H1793; first compound 0.04 µM) of 0.98, a relative viability (NCI-H1793; first compound 0.1265 µM) of 0.752 and a relative viability (NCI-H1793; first compound 0.4 µM) of 0.855. The relative viability (NCI-H1793; first compound 4 µM) was 0.485, the relative viability (NCI-H1993; first compound 0.04 µM) was 0.63 and the relative viability (NCI-H1993; first compound 0.1265 µM) was 0.587. For the same molecule, the relative viability (NCI-H1993; first compound 0.4 µM) was 0.542, the relative viability (NCI-H1993; first compound 4 µM) was 0.578 and the relative viability (NCI-H2023; first compound 0.04 µM) was 0.263. It also gave a relative viability (NCI-H2023; first compound 0.1265 µM) of 0.213, a relative viability (NCI-H2023; first compound 0.4 µM) of 0.203 and a relative viability (NCI-H2023; first compound 4 µM) of 0.199. It also gave a relative viability (NCI-H2085; first compound 0.04 µM) of 0.961, a relative viability (NCI-H2085; first compound 0.1265 µM) of 0.936 and a relative viability (NCI-H2085; first compound 0.4 µM) of 0.935. For the same molecule, the relative viability (NCI-H2085; first compound 4 µM) was 0.759, the relative viability (NCI-H2170; first compound 0.04 µM) was 0.266 and the relative viability (NCI-H2170; first compound 0.1265 µM) was 0.286. The relative viability (NCI-H2170; first compound 0.4 µM) was 0.259, the relative viability (NCI-H2170; first compound 4 µM) was 0.26 and the relative viability (NCI-H2347; first compound 0.04 µM) was 0.413. The relative viability (NCI-H2347; first compound 0.1265 µM) was 0.408, the relative viability (NCI-H2347; first compound 0.4 µM) was 0.413 and the relative viability (NCI-H2347; first compound 4 µM) was 0.381. For the same molecule, the relative viability (NCI-H2405; first compound 0.04 µM) was 1.11, the relative viability (NCI-H2405; first compound 0.1265 µM) was 1.01 and the relative viability (NCI-H2405; first compound 0.4 µM) was 1.04. For the same molecule, the relative viability (NCI-H2405; first compound 4 µM) was 1.03, the relative viability (NCI-H3122; first compound 0.04 µM) was 0.192 and the relative viability (NCI-H3122; first compound 0.1265 µM) was 0.193. It also gave a relative viability (NCI-H3122; first compound 0.4 µM) of 0.192, a relative viability (NCI-H3122; first compound 4 µM) of 0.183 and a relative viability (NCI-H441; first compound 0.04 µM) of 0.281. It also gave a relative viability (NCI-H441; first compound 0.1265 µM) of 0.263, a relative viability (NCI-H441; first compound 0.4 µM) of 0.247 and a relative viability (NCI-H441; first compound 4 µM) of 0.217. For the same molecule, the relative viability (NCI-H520; first compound 0.04 µM) was 0.844, the relative viability (NCI-H520; first compound 0.1265 µM) was 0.666 and the relative viability (NCI-H520; first compound 0.4 µM) was 0.534. For the same molecule, the relative viability (NCI-H520; first compound 4 µM) was 0.492, the relative viability (NCI-H647; first compound 0.04 µM) was 0.19 and the relative viability (NCI-H647; first compound 0.1265 µM) was 0.154. The relative viability (NCI-H647; first compound 0.4 µM) was 0.102, the relative viability (NCI-H647; first compound 4 µM) was 0.155 and the relative viability (PC-14; first compound 0.04 µM) was 0.119. For the same molecule, the relative viability (PC-14; first compound 0.1265 µM) was 0.141, the relative viability (PC-14; first compound 0.4 µM) was 0.127 and the relative viability (PC-14; first compound 4 µM) was 0.116. It also gave a relative viability (RERF-LC-KJ; first compound 0.04 µM) of 0.521, a relative viability (RERF-LC-KJ; first compound 0.1265 µM) of 0.465 and a relative viability (RERF-LC-KJ; first compound 0.4 µM) of 0.461. It also gave a relative viability (RERF-LC-KJ; first compound 4 µM) of 0.443, a relative viability (SW 900; first compound 0.04 µM) of 0.469 and a relative viability (SW 900; first compound 0.1265 µM) of 0.471. For the same molecule, the relative viability (SW 900; first compound 0.4 µM) was 0.44 and the relative viability (SW 900; first compound 4 µM) was 0.453.
